The results in this text go back to patent US8722676B2, “Bicyclic piperazine compounds” (Genentech, Inc., priority 2011, dated 2014).

The assay deals with production of CD69 by B lymphocytes in human whole blood activated with goat F(ab')2 anti-human IgM. As to the kind of experiment: CD69 Whole Blood Assay (CD69 Hu Blood FACS). The format is cell-based. To be noted: anti-IgM stimulated, 20 hour incubation, CD69+ of CD20+ cells, Table 2. From the text:
A CD69 Whole Blood Assay can be conducted on Formula I compounds to determine the ability of compounds to inhibit the production of CD69 by B lymphocytes in human whole blood activated by crosslinking surface IgM with goat F(ab′)2 anti-human IgM (Example 907). CD69 is a type II C-type lectin involved in lymphocyte migration and cytokine secretion. CD69 expression represents one of the earliest available indicators of leukocyte activation and its rapid induction occurs through transcriptional activation (Vazquez et al (2009) Jour. of Immunology Published Oct. 19, 2009, doi:10.4049/jimmunol.0900839). Concentration-dependent inhibition of antigen receptor stimulation by selective Btk inhibitors induces cell surface expression of the lymphocyte activation marker CD69 (Honigberg et al (2010) Proc. Natl. Acad. Sci. 107(29):13075-13080). Thus, CD69 inhibition by selective Btk inhibitors may be correlated with therapeutic efficacy of certain B-cell disorders.
Human blood is obtained from healthy volunteers, with the following restrictions: 1 week drug-free, non-smokers. Blood (approximately 20 mls to test 8 compounds) is collected by venipuncture into Vacutainer® (Becton, Dickinson and Co.) tubes with sodium heparin.
Solutions of Formula I compounds at 10 mM in DMSO are diluted 1:10 in 100% DMSO, then are diluted by three-fold serial dilutions in 100% DMSO for a ten point dose-response curve. The compounds are further diluted 1:10 in PBS and then an aliquot of 5.5 μl of each compound is added in duplicate to a 2 ml 96-well plate; 5.5 μl of 10% DMSO in PBS is added as control and no-stimulus wells. Human whole blood—HWB (100 μl) is added to each well. After mixing the plates are incubated at 37° C., 5% CO2, 100% humidity for 30 minutes. Goat F(ab′)2 anti-human IgM (10 μl of a 500 μg/ml solution, 50 μg/ml final) is added to each well (except the no-stimulus wells) with mixing and the plates are incubated for an additional 20 hours. At the end of the 20 hour incubation, samples are incubated with fluorescent labeled antibodies for 30 minutes, at 37° C., 5% CO2, 100% humidity. Include induced control, unstained and single stains for compensation adjustments and initial voltage settings. Samples are then lysed with PharM Lyse™ (BD Biosciences Pharmingen) according to the manufacturer's instructions. Samples are then transferred to a 96 well plate suitable to be run on the BD Biosciences HTS 96 well system on the LSRII machine. Data acquired and Mean Fluorescence Intensity values were obtained using BD Biosciences DIVA Software. Results are initially analyzed by FACS analysis software (Flow Jo).
In turn, `O=C1c2cc3n(c2CCN1c1cc(F)cc(-c2nc(Nc4ccc(N5CCN(C6COC6)CC5)cc4)c4nc[nH]c4n2)c1CO)CCCC3` [Compound 120, 2-[5-fluoro-2-(hydroxymethyl)-3-[6-[4-[4-(oxetan-3-yl)piperazin-1-yl]anilino]-9H-purin-2-yl]phenyl]-3,4,6,7,8,9-hexahydropyrido[3,4-b]indolizin-1-one] gave a CD69 Hu Blood FACS IC70 of 1900 nM.

Regarding `O=C1c2cc3c(n2CCN1c1nccc(-c2cc(Nc4ccc(N5CCN(C6COC6)CC5)cn4)c4nccn4c2)c1CO)CCCC3` [Compound 121, 2-[3-(hydroxymethyl)-4-[8-[[5-[4-(oxetan-3-yl)piperazin-1-yl]-2-pyridyl]amino]imidazo[1,2-a]pyridin-6-yl]-2-pyridyl]-3,4,6,7,8,9-hexahydropyrazino[1,2-a]indol-1-one], the CD69 Hu Blood FACS IC70 stood at 279 nM.

`O=C1c2cc3c(n2CCN1c1nccc(-c2cc(Nc4ccc(N5CCN(C6COC6)CC5)cn4)c4ncnn4c2)c1CO)CCCC3` [Compound 122, 2-[3-(hydroxymethyl)-4-[8-[[5-[4-(oxetan-3-yl)piperazin-1-yl]-2-pyridyl]amino]-[1,2,4]triazolo[1,5-a]pyridin-6-yl]-2-pyridyl]-3,4,6,7,8,9-hexahydropyrazino[1,2-a]indol-1-one] had a CD69 Hu Blood FACS IC70 of 208 nM.

`CC1(C)Cc2cc3n(c2C1)CCN(c1cc(F)cc(-c2nc(Nc4ccc(N5CCN(C6COC6)CC5)cc4)c4nc[nH]c4n2)c1CO)C3=O` [Compound 123, 3-[5-fluoro-2-(hydroxymethyl)-3-[6-[4-[4-(oxetan-3-yl)piperazin-1-yl]anilino]-9H-purin-2-yl]phenyl]-7,7-dimethyl-1,2,6,8-tetrahydrocyclopenta[3,4]pyrrolo[3,5-b]pyrazin-4-one] gave a CD69 Hu Blood FACS IC70 of 256 nM.

`CN1CCn2nc(Nc3cc(-c4ccnc(N5CCn6c(cc7c6CCCC7)C5=O)c4CO)nn4ccnc34)cc2C1` [Compound 124, 2-[3-(hydroxymethyl)-4-[8-[(5-methyl-6,7-dihydro-4H-pyrazolo[1,5-a]pyrazin-2-yl)amino]imidazo[1,2-b]pyridazin-6-yl]-2-pyridyl]-3,4,6,7,8,9-hexahydropyrazino[1,2-a]indol-1-one] returned a CD69 Hu Blood FACS IC70 of 333 nM.
